Test results as given in ChEMBL document CHEMBL1151886, “Synthesis and SAR of hydroxyethylamine based phenylcarboxyamides as inhibitors of BACE” (Bioorg Med Chem Lett, 2009).

Experiments:
Beta-secretase 1 [1] = biological target: T1, Beta-secretase 1 (Homo sapiens, UniProt P56817); assay: Inhibition of BACE1 in human HEK293 cells overexpressing APP with Swedish mutation assessed as inhibition of amyloid beta 40 production; type: cell-based
Beta-secretase 1 [2] = biological target: T1, Beta-secretase 1; assay: Binding affinity to BACE assessed as displacement of [3H]BMS-599240

T1 sequence (P56817 whole entry): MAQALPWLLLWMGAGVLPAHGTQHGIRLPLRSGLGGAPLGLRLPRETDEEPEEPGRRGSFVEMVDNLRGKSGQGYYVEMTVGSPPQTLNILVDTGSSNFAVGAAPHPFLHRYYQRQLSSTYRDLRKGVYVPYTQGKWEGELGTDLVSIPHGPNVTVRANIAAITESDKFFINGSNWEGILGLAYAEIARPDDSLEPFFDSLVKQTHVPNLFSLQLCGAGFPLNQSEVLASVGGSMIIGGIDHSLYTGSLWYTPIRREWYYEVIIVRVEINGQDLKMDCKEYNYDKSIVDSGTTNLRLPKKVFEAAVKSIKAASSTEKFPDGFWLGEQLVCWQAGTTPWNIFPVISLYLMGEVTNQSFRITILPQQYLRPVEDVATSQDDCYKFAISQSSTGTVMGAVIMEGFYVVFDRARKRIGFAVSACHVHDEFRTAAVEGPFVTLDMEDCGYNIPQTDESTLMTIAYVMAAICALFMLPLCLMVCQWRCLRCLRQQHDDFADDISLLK

| SMILES | IC50 (Beta-secretase 1 [1]; read-out: IC50) [nM] | IC50 (Beta-secretase 1 [2]; read-out: IC50) [nM] | IC50 (Beta-secretase 1 [1]; hek293) | IC50 (Beta-secretase 1 [2]) |
| --- | --- | --- | --- | --- |
| CCCN(CCC)C(=O)c1cc(C(C)=O)cc(C(=O)N[C@@H](Cc2cc(F)cc(F)c2)[C@H](O)CNCc2cccc(OC)c2)c1 | 19 | 4 | – | – |
| COc1cccc(CNC[C@@H](O)[C@H](Cc2cc(F)cc(F)c2)NC(=O)c2cc(C(C)=O)cc(C(=O)N[C@H](C)c3ccccc3)c2)c1 | 73 | 20 | – | – |
| CCCN(CCC)C(=O)c1cc(CCO)cc(C(=O)N[C@@H](Cc2cc(F)cc(F)c2)[C@H](O)CNCc2cccc(OC)c2)c1 | 53 | 10 | – | – |
| CCCN(CCC)C(=O)c1cc(C(=O)N[C@@H](Cc2cc(F)cc(F)c2)[C@H](O)CNCc2cccc(OC)c2)cc(C(C)NC(C)=O)c1 (stereo not given in full) | 45 | 20 | – | – |
| CO/N=C(/C)c1cc(C(=O)NC(C)c2ccc(F)cc2)cc(C(=O)N[C@@H](Cc2cc(F)cc(F)c2)[C@H](O)CNCc2cccc(OC)c2)c1 (stereo not given in full) | 276 | 24 | – | – |
| COc1cccc(CNC[C@@H](O)[C@H](Cc2cc(F)cc(F)c2)NC(=O)c2cc(/C(C)=N/OCC(C)C)cc(N(c3ccccc3)S(C)(=O)=O)c2)c1 | – | 242 | Not Active | – |
| COc1cccc(CNC[C@@H](O)[C@H](Cc2cc(F)cc(F)c2)NC(=O)c2cccc(N(c3ccccc3)S(C)(=O)=O)c2)c1 | 137 | 11 | – | – |
| CCCN(CCC)C(=O)c1cc(Oc2ccc(OC)cc2)cc(C(=O)N[C@@H](Cc2cc(F)cc(F)c2)[C@H](O)CNCc2cccc(OC)c2)c1 | 412 | 10 | – | – |
| CCCN(CCC)C(=O)c1cc(C(=O)N[C@@H](Cc2cc(F)cc(F)c2)[C@H](O)CNCc2cccc(OC)c2)cc(/C(C)=N\OCc2ccccc2)c1 | 534 | 67 | – | – |
| CCCN(CCC)C(=O)c1cc(C(=O)N[C@@H](Cc2cc(F)cc(F)c2)[C@H](O)CNCc2cccc(OC)c2)cc(C(C)O)c1 (stereo not given in full) | 12 | 2 | – | – |
| CCCN(CCC)C(=O)c1cc(CC(COC)OC)cc(C(=O)N[C@@H](Cc2cc(F)cc(F)c2)[C@H](O)CNCc2cccc(OC)c2)c1 (stereo not given in full) | – | > 2000 | Not Active | – |
| CO/N=C(\C)c1cc(C(=O)N[C@@H](Cc2cc(F)cc(F)c2)[C@H](O)CNCc2cccc(OC)c2)cc(N(c2ccccc2)S(C)(=O)=O)c1 | 86 | 10 | – | – |
| CCCN(CCC)C(=O)c1cc(Oc2ccccc2)cc(C(=O)N[C@@H](Cc2cc(F)cc(F)c2)[C@H](O)CNCc2cccc(OC)c2)c1 | > 333 | 10 | – | – |
| CCCN(CCC)C(=O)c1cc(C(=O)N[C@@H](Cc2cc(F)cc(F)c2)[C@H](O)CNCc2cccc(OC)c2)cc(/C(C)=N\O)c1 | 27 | 3 | – | – |
| CCCN(CCC)C(=O)c1cc(C(=O)N[C@@H](Cc2cc(F)cc(F)c2)[C@H](O)CNCc2cccc(OC)c2)cc(/C(C)=N\OCC(C)C)c1 | 367 | 55 | – | – |
| COc1cccc(CNC[C@@H](O)[C@H](Cc2cc(F)cc(F)c2)NC(=O)c2cc(/C(C)=N\O)cc(N(C)S(C)(=O)=O)c2)c1 | 429 | 76 | – | – |
| CO/N=C(/C)c1cc(C(=O)N[C@@H](Cc2cc(F)cc(F)c2)[C@H](O)CNCc2cccc(OC)c2)cc(N2CCCCS2(=O)=O)c1 | 345 | 52 | – | – |
| COc1cccc(CNC[C@@H](O)[C@H](Cc2cc(F)cc(F)c2)NC(=O)c2cccc(C(=O)N[C@H](C)c3ccccc3)c2)c1 | 198 | 89 | – | – |
| COc1cccc(CNC[C@@H](O)[C@H](Cc2cc(F)cc(F)c2)NC(=O)c2cc(C(C)=O)cc(N(c3ccccc3)S(C)(=O)=O)c2)c1 | > 263 | 17 | – | – |
| C=CCO/N=C(/C)c1cc(C(=O)N[C@@H](Cc2cc(F)cc(F)c2)[C@H](O)CNCc2cccc(OC)c2)cc(C(=O)N(CCC)CCC)c1 | 120 | 10 | – | – |
| COc1cccc(CNC[C@@H](O)[C@H](Cc2cc(F)cc(F)c2)NC(=O)c2cc(/C(C)=N\OCc3ccccc3)cc(N3CCCCS3(=O)=O)c2)c1 | 821 | 31 | – | – |
| CCCO/N=C(/C)c1cc(C(=O)N[C@@H](Cc2cc(F)cc(F)c2)[C@H](O)CNCc2cccc(OC)c2)cc(N(c2ccccc2)S(C)(=O)=O)c1 | 184 | 6 | – | – |
| COc1cccc(CNC[C@@H](O)[C@H](Cc2cc(F)cc(F)c2)NC(=O)c2cc(C(C)=O)cc(C(=O)NC(C)c3ccc(F)cc3)c2)c1 (stereo not given in full) | 91 | 51 | – | – |
| COc1cccc(CNC[C@@H](O)[C@H](Cc2cc(F)cc(F)c2)NC(=O)c2cc(C(C)O)cc(N3CCCCS3(=O)=O)c2)c1 (stereo not given in full) | 305 | 43 | – | – |
| COc1cccc(CNC[C@@H](O)[C@H](Cc2cc(F)cc(F)c2)NC(=O)c2cc(C(C)O)cc(N(c3ccccc3)S(C)(=O)=O)c2)c1 (stereo not given in full) | – | – | Not Active | Not Active |
| COc1cccc(CNC[C@@H](O)[C@H](Cc2cc(F)cc(F)c2)NC(=O)c2cc(/C(C)=N\OCc3ccccc3)cc(N(C)S(C)(=O)=O)c2)c1 | > 333 | 9 | – | – |
| COc1cccc(CNC[C@@H](O)[C@H](Cc2cc(F)cc(F)c2)NC(=O)c2cccc(N3CCCCS3(=O)=O)c2)c1 | 182 | 74 | – | – |
| COc1cccc(CNC[C@@H](O)[C@H](Cc2cc(F)cc(F)c2)NC(=O)c2cc(C(C)=O)cc(N(C)S(C)(=O)=O)c2)c1 | 559 | 124 | – | – |

| SMILES | IC50 (Beta-secretase 1 [1]; read-out: IC50) [nM] | IC50 (Beta-secretase 1 [2]; read-out: IC50) [nM] | IC50 (Beta-secretase 1 [1]; hek293) | IC50 (Beta-secretase 1 [2]) |
| --- | --- | --- | --- | --- |
| CCCN(CCC)C(=O)c1cccc(C(=O)N[C@@H](Cc2cc(F)cc(F)c2)[C@H](O)CNCc2cccc(OC)c2)c1 | 80 | 31 | – | – |
| C=CCO/N=C(/C)c1cc(C(=O)N[C@@H](Cc2cc(F)cc(F)c2)[C@H](O)CNCc2cccc(OC)c2)cc(N(C)S(C)(=O)=O)c1 | 363 | 151 | – | – |
| CCCN(CCC)C(=O)c1cc(CC(C)O)cc(C(=O)N[C@@H](Cc2cc(F)cc(F)c2)[C@H](O)CNCc2cccc(OC)c2)c1 (stereo not given in full) | 34 | 16 | – | – |
| C=CCO/N=C(/C)c1cc(C(=O)N[C@@H](Cc2cc(F)cc(F)c2)[C@H](O)CNCc2cccc(OC)c2)cc(N2CCCCS2(=O)=O)c1 | 1230 | 111 | – | – |
| C=CCO/N=C(/C)c1cc(C(=O)N[C@@H](Cc2cc(F)cc(F)c2)[C@H](O)CNCc2cccc(OC)c2)cc(C(=O)N[C@H](C)c2ccccc2)c1 | 500 | 86 | – | – |
| CCCN(CCC)C(=O)c1cc(C(=O)N[C@@H](Cc2cc(F)cc(F)c2)[C@H](O)CNCc2cccc(OC)c2)cc(C(C)N)c1 (stereo not given in full) | 640 | 123 | – | – |
| COc1cccc(CNC[C@@H](O)[C@H](Cc2cc(F)cc(F)c2)NC(=O)c2cc(C(=O)N[C@H](C)c3ccccc3)cc(C(C)O)c2)c1 (stereo not given in full) | 92 | 29 | – | – |
| COc1cccc(CNC[C@@H](O)[C@H](Cc2cc(F)cc(F)c2)NC(=O)c2cc(/C(C)=N\O)cc(N(c3ccccc3)S(C)(=O)=O)c2)c1 | 91 | 9 | – | – |
| CO/N=C(\C)c1cc(C(=O)N[C@@H](Cc2cc(F)cc(F)c2)[C@H](O)CNCc2cccc(OC)c2)cc(N(C)S(C)(=O)=O)c1 | 52 | 60 | – | – |
| COc1cccc(CNC[C@@H](O)[C@H](Cc2cc(F)cc(F)c2)NC(=O)c2cccc(C(=O)NC(C)c3ccc(F)cc3)c2)c1 (stereo not given in full) | 266 | 166 | – | – |
| CCCN(CCC)C(=O)c1cc(C(=O)N[C@@H](Cc2cc(F)cc(F)c2)[C@H](O)CNCc2cccc(OC)c2)cc(/C(C)=N\OC)c1 | 42 | 1 | – | – |
| C=CCO/N=C(/C)c1cc(C(=O)NC(C)c2ccc(F)cc2)cc(C(=O)N[C@@H](Cc2cc(F)cc(F)c2)[C@H](O)CNCc2cccc(OC)c2)c1 (stereo not given in full) | 530 | 168 | – | – |
| COc1cccc(CNC[C@@H](O)[C@H](Cc2cc(F)cc(F)c2)NC(=O)c2cc(C(C)=O)cc(N3CCCCS3(=O)=O)c2)c1 | 248 | 90 | – | – |
| COc1cccc(CNC[C@@H](O)[C@H](Cc2cc(F)cc(F)c2)NC(=O)c2cc(/C(C)=N\OCC(C)C)cc(N3CCCCS3(=O)=O)c2)c1 | 2100 | 428 | – | – |
| COc1cccc(CNC[C@@H](O)[C@H](Cc2cc(F)cc(F)c2)NC(=O)c2cc(/C(C)=N\OCc3ccccc3)cc(N(c3ccccc3)S(C)(=O)=O)c2)c1 | 88 | 12 | – | – |
| COc1cccc(CNC[C@@H](O)[C@H](Cc2cc(F)cc(F)c2)NC(=O)c2cc(C(=O)NC(C)c3ccc(F)cc3)cc(C(C)O)c2)c1 (stereo not given in full) | 164 | 37 | – | – |
| CCCN(CCC)C(=O)c1cc(Sc2ccccc2)cc(C(=O)N[C@@H](Cc2cc(F)cc(F)c2)[C@H](O)CNCc2cccc(OC)c2)c1 | > 333 | 13 | – | – |
| CCCN(CCC)C(=O)c1cc(Oc2ccccc2OC)cc(C(=O)N[C@@H](Cc2cc(F)cc(F)c2)[C@H](O)CNCc2cccc(OC)c2)c1 | > 666 | 54 | – | – |
| C=CCO/N=C(/C)c1cc(C(=O)N[C@@H](Cc2cc(F)cc(F)c2)[C@H](O)CNCc2cccc(OC)c2)cc(N(c2ccccc2)S(C)(=O)=O)c1 | 162 | 27 | – | – |
| COc1cccc(CNC[C@@H](O)[C@H](Cc2cc(F)cc(F)c2)NC(=O)c2cc(/C(C)=N\O)cc(N3CCCCS3(=O)=O)c2)c1 | 117 | 38 | – | – |
| CCCN(CCC)C(=O)c1cc(Oc2ccc(F)cc2)cc(C(=O)N[C@@H](Cc2cc(F)cc(F)c2)[C@H](O)CNCc2cccc(OC)c2)c1 | 94 | 22 | – | – |
| CCCO/N=C(/C)c1cc(C(=O)N[C@@H](Cc2cc(F)cc(F)c2)[C@H](O)CNCc2cccc(OC)c2)cc(N(C)S(C)(=O)=O)c1 | 217 | 59 | – | – |
| CO/N=C(/C)c1cc(C(=O)N[C@@H](Cc2cc(F)cc(F)c2)[C@H](O)CNCc2cccc(OC)c2)cc(C(=O)N[C@H](C)c2ccccc2)c1 | 82 | 32 | – | – |
| CCCO/N=C(/C)c1cc(C(=O)N[C@@H](Cc2cc(F)cc(F)c2)[C@H](O)CNCc2cccc(OC)c2)cc(N2CCCCS2(=O)=O)c1 | 205 | 25 | – | – |
| COc1cccc(CNC[C@@H](O)[C@H](Cc2cc(F)cc(F)c2)NC(=O)c2cc(C(C)O)cc(N(C)S(C)(=O)=O)c2)c1 (stereo not given in full) | 122 | 43 | – | – |
| COc1cccc(CNC[C@@H](O)[C@H](Cc2cc(F)cc(F)c2)NC(=O)c2cccc(N(C)S(C)(=O)=O)c2)c1 | 80 | 75 | – | – |
| COc1cccc(CNC[C@@H](O)[C@H](Cc2cc(F)cc(F)c2)NC(=O)c2cc(/C(C)=N\OCC(C)C)cc(N(C)S(C)(=O)=O)c2)c1 | > 666 | 173 | – | – |
